In PubChem BioAssay (NCI):
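Exposure lasted 48 hours, with cells grown in 96-well plates and compounds tested at five concentrations. GI50: concentration for 50% inhibition of growth. TGI is the concentration that stops growth completely.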

How the values were obtained:
Assay in all cases: NCI tumour cell line growth inhibition, 48 h
OVCAR-4 ovarian = test system: OVCAR-4 ovarian
SK-OV-3 ovarian = test system: SK-OV-3 ovarian
HCC-2998 colon = test system: HCC-2998 colon
UACC-257 melanoma = test system: UACC-257 melanoma
COLO 205 colon = test system: COLO 205 colon
NCI-H226 lung = test system: NCI-H226 lung
NCI/ADR-RES ovarian = test system: NCI/ADR-RES ovarian
SK-MEL-2 melanoma = test system: SK-MEL-2 melanoma
DU-145 prostate = test system: DU-145 prostate
HS 578T breast = test system: HS 578T breast
UO-31 renal = test system: UO-31 renal
OVCAR-5 ovarian = test system: OVCAR-5 ovarian
SF-539 CNS = test system: SF-539 CNS
CCRF-CEM leukemia = test system: CCRF-CEM leukemia
KM12 colon = test system: KM12 colon
SNB-75 CNS = test system: SNB-75 CNS
SR leukemia = test system: SR leukemia
EKVX NSCLC = test system: EKVX NSCLC
UACC-62 melanoma = test system: UACC-62 melanoma
HL-60(TB) leukemia = test system: HL-60(TB) leukemia
SW-620 colon = test system: SW-620 colon
RXF 393 renal = test system: RXF 393 renal
HCT-116 colon = test system: HCT-116 colon
OVCAR-3 ovarian = test system: OVCAR-3 ovarian
SF-268 CNS = test system: SF-268 CNS
ACHN renal = test system: ACHN renal
BT-549 breast = test system: BT-549 breast
SF-295 CNS = test system: SF-295 CNS
IGROV1 ovarian = test system: IGROV1 ovarian
SNB-19 CNS = test system: SNB-19 CNS
MCF7 breast = test system: MCF7 breast
HCT-15 colon = test system: HCT-15 colon
CAKI-1 renal = test system: CAKI-1 renal
HOP-92 NSCLC = test system: HOP-92 NSCLC
HT29 colon = test system: HT29 colon
MOLT-4 leukemia = test system: MOLT-4 leukemia
K-562 leukemia = test system: K-562 leukemia
U251 CNS = test system: U251 CNS
SK-MEL-5 melanoma = test system: SK-MEL-5 melanoma
RPMI-8226 leukemia = test system: RPMI-8226 leukemia
HOP-62 NSCLC = test system: HOP-62 NSCLC
786-0 renal = test system: 786-0 renal
T-47D breast = test system: T-47D breast
NCI-H460 lung = test system: NCI-H460 lung
A498 renal = test system: A498 renal

Fc1ccc(-c2cc3nc(C(Cl)Cl)nc(-c4ccc(F)cc4)n3n2)cc1
GI50 (OVCAR-4 ovarian): 1820 nM
TGI (OVCAR-4 ovarian): 5.75 µM
GI50 (SK-OV-3 ovarian): 2360 nM
TGI (SK-OV-3 ovarian): 6.34 µM
GI50 (HCC-2998 colon): 1010 nM
TGI (HCC-2998 colon): 2350 nM
GI50 (UACC-257 melanoma): 2260 nM
TGI (UACC-257 melanoma): 4.91 µM
GI50 (COLO 205 colon): 1150 nM
TGI (COLO 205 colon): 2520 nM
GI50 (NCI-H226 lung): 6.14 µM
TGI (NCI-H226 lung): > 100 µM
GI50 (NCI/ADR-RES ovarian): 1260 nM
TGI (NCI/ADR-RES ovarian): 5.84 µM
GI50 (SK-MEL-2 melanoma): > 100 µM
TGI (SK-MEL-2 melanoma): > 100 µM
GI50 (DU-145 prostate): 443 nM
TGI (DU-145 prostate): 2970 nM
GI50 (HS 578T breast): 4.14 µM
TGI (HS 578T breast): > 100 µM
GI50 (UO-31 renal): 3.1 µM
TGI (UO-31 renal): > 100 µM
GI50 (OVCAR-5 ovarian): 2270 nM
TGI (OVCAR-5 ovarian): 7.29 µM
GI50 (SF-539 CNS): 3.56 µM
TGI (SF-539 CNS): > 100 µM
GI50 (CCRF-CEM leukemia): 4.21 µM
TGI (CCRF-CEM leukemia): > 100 µM
GI50 (KM12 colon): 1730 nM
TGI (KM12 colon): 5.22 µM
GI50 (SNB-75 CNS): 64.9 µM
TGI (SNB-75 CNS): > 100 µM
GI50 (SR leukemia): 1400 nM
TGI (SR leukemia): > 100 µM
GI50 (EKVX NSCLC): 1680 nM
TGI (EKVX NSCLC): 4.37 µM
GI50 (UACC-62 melanoma): 3.21 µM
TGI (UACC-62 melanoma): > 100 µM
GI50 (HL-60(TB) leukemia): 690 nM
GI50 (SW-620 colon): 1110 nM
TGI (SW-620 colon): 6.85 µM
GI50 (RXF 393 renal): 1100 nM
TGI (RXF 393 renal): 2430 nM
GI50 (HCT-116 colon): 637 nM
TGI (HCT-116 colon): 6.3 µM
GI50 (OVCAR-3 ovarian): 1540 nM
TGI (OVCAR-3 ovarian): 3.51 µM
GI50 (SF-268 CNS): 2480 nM
TGI (SF-268 CNS): > 100 µM
GI50 (ACHN renal): 676 nM
TGI (ACHN renal): 4.16 µM
GI50 (BT-549 breast): 2430 nM
TGI (BT-549 breast): 42.8 µM
GI50 (SF-295 CNS): 2170 nM
TGI (SF-295 CNS): 5.78 µM
GI50 (IGROV1 ovarian): 3.99 µM
TGI (IGROV1 ovarian): > 100 µM
GI50 (SNB-19 CNS): 1650 nM
TGI (SNB-19 CNS): 6.88 µM
GI50 (MCF7 breast): 1210 nM
TGI (MCF7 breast): > 100 µM
GI50 (HCT-15 colon): 1110 nM
TGI (HCT-15 colon): 6.16 µM
GI50 (CAKI-1 renal): 1890 nM
TGI (CAKI-1 renal): 6.74 µM
GI50 (HOP-92 NSCLC): 2600 nM
TGI (HOP-92 NSCLC): 9.69 µM
GI50 (HT29 colon): 746 nM
TGI (HT29 colon): 3.85 µM
GI50 (MOLT-4 leukemia): 1800 nM
TGI (MOLT-4 leukemia): 9.61 µM
GI50 (K-562 leukemia): 2300 nM
TGI (K-562 leukemia): > 100 µM
GI50 (U251 CNS): 1220 nM
TGI (U251 CNS): 5.27 µM
GI50 (SK-MEL-5 melanoma): > 100 µM
TGI (SK-MEL-5 melanoma): > 100 µM
GI50 (RPMI-8226 leukemia): 2660 nM
TGI (RPMI-8226 leukemia): > 100 µM
GI50 (HOP-62 NSCLC): 1500 nM
TGI (HOP-62 NSCLC): 4.26 µM
GI50 (786-0 renal): 16.9 µM
TGI (786-0 renal): > 100 µM
GI50 (T-47D breast): 2620 nM
TGI (T-47D breast): > 100 µM
GI50 (NCI-H460 lung): 591 nM
TGI (NCI-H460 lung): 3.17 µM
GI50 (A498 renal): 1650 nM
TGI (A498 renal): 3.44 µM
